Measured values: patent US11339160B2, “Imidazole and triazole containing bicyclic compounds as JAK inhibitors” (THERAVANCE BIOPHARMA R&D IP, LLC, priority 2019, dated 2022)

What was measured:
JAK3 = JAK3 (Homo sapiens (Human), UniProt P52333); experiment: Biochemical JAK3 kinase assay (LanthaScreen); settings: for JAK3 (pKi)-JAK1 (pKi): selectivity, difference of pKi values
Experimental: (§1) Assay 1: Biochemical JAK and Tyk2 Kinase Assays
(§2) A panel of four LanthaScreen JAK biochemical assays (JAK1, 2, 3 and Tyk2) were carried in a common kinase reaction buffer (50 mM HEPES, pH 7.5, 0.01% Brij-35, 10 mM MgCl2, and 1 mM EGTA). Recombinant GST-tagged JAK enzymes and a GFP-tagged STAT1 peptide substrate were obtained from Life Technologies.
Serially or discretely diluted compounds were pre-incubated with each of the four JAK enzymes and the substrate in white 384-well microplates (Corning) at ambient temperature for 1 h. ATP was subsequently added to initiate the kinase reactions in 10 μL total volume, with 1% DMSO. […] Kinase reactions were allowed to proceed for 1 hour at ambient temperature before a 10 μL preparation of EDTA (10 mM final concentration) and Tb-anti-pSTAT1 (pTyr701) antibody (Life Technologies, 2 nM final concentration) in TR-FRET dilution buffer (Life Technologies) was added. The plates were allowed to incubate at ambient temperature for 1 h before being read on the EnVision reader (Perkin Elmer). Emission ratio signals (520 nm/495 nm) were recorded and utilized to calculate the percent inhibition values based on DMSO and background controls.
(§3) For dose-response analysis, percent inhibition data were plotted vs. compound concentrations, and IC50 values were determined from a 4-parameter robust fit model with the Prism software (GraphPad Software). Results were expressed as pIC50 (negative logarithm of IC50) and subsequently converted to pKi (negative logarithm of dissociation constant, Ki) using the Cheng-Prusoff equation.

[1] = tested on: IL-2 stimulated STAT5 phosphorylation in CD4+ T cells isolated from murine splenocytes; experiment: Inhibition of IL-2 stimulated pSTAT5 in CD4+ T cells isolated from murine splenocytes; type: cell-based; settings: Mus musculus, IL-2 7 ng/ml, read-out: pIC50, inhibition of IL-2 stimulated pSTAT5 (converted)
Experimental: Assay 3: Inhibition of IL-2 Stimulated pSTAT5 in CD4+ T Cells Isolated from Murine Splenocytes
The potency of test compounds for inhibition of interleukin-2 (IL-2) stimulated STAT5 phosphorylation was measured in the CD4+ T cells isolated from murine splenocytes using AlphaLisa. Because IL-2 signals through JAK3, this assay provides a measure of JAK3 cellular potency in mouse.
Phosphorylated STAT5 was measured via the AlphaLISA SureFire Ultra pSTAT5 (Tyr694/699) kit (PerkinElmer).
CD4+ T cells were isolated from murine splenocytes via negative selection on a magnetic column (Miltnyi Biotec) and re-suspended in assay media (phenol red-free DMEM (Life Technologies) supplemented with 10% FBS (ATCC)). Cells were seeded at 50,000 cells/well in assay media (2 μL/well). Compounds were serially diluted in DMSO and diluted to 2× final concentration in assay media. Compound was added (4 μl/well) and the cells incubated at 37° C., 5% CO2 for 1 hour, followed by the addition of IL-2 (R&D Systems; final concentration 7 ng/ml) in pre-warmed assay media (2 μL) for 30 minutes. After cytokine stimulation, cells were lysed with 2 μl of 5× AlphaLisa Lysis Buffer (PerkinElmer). The lysate was shaken at 900 rpm for 10 minutes at room temperature (RT). Phosphorylated STAT5 was measured via the pSTAT5 AlphaLisa kit (PerkinElmer). Freshly prepared acceptor bead mixture was dispensed onto lysate (5 ul) under green filtered <100 lux light. Plates were shaken at 900 rpm for 2 mins, briefly spun down, and incubated for 2 hrs at RT in the dark. Donor beads were dispensed (5 μl) under green filtered <100 lux light. Plates were shaken at 900 rpm for 2 mins, briefly spun down, and incubated overnight at RT in the dark. Luminescence was measured with excitation at 689 nm and emission at 570 nm using an EnVision plate reader (PerkinElmer) under green filtered <100 lux light.
To determine the inhibitory potency of test compounds in response to IL-2, the average emission intensity of beads bound to pSTAT5 was measured in primary CD4+ T cells isolated from murine splenocytes. IC50 values were determined from analysis of the inhibition curves of signal intensity vs compound concentration. Data are expressed as pIC50 (negative decadic logarithm IC50) values (mean standard deviation).

JAK1 = JAK1 (Homo sapiens (Human), UniProt P23458); experiment: Biochemical JAK1 kinase assay (LanthaScreen); settings: 1 h pre-incubation, ATP at Km 25 μM; pKi from pIC50 by Cheng-Prusoff
Sequence of JAK1 (P23458 whole entry): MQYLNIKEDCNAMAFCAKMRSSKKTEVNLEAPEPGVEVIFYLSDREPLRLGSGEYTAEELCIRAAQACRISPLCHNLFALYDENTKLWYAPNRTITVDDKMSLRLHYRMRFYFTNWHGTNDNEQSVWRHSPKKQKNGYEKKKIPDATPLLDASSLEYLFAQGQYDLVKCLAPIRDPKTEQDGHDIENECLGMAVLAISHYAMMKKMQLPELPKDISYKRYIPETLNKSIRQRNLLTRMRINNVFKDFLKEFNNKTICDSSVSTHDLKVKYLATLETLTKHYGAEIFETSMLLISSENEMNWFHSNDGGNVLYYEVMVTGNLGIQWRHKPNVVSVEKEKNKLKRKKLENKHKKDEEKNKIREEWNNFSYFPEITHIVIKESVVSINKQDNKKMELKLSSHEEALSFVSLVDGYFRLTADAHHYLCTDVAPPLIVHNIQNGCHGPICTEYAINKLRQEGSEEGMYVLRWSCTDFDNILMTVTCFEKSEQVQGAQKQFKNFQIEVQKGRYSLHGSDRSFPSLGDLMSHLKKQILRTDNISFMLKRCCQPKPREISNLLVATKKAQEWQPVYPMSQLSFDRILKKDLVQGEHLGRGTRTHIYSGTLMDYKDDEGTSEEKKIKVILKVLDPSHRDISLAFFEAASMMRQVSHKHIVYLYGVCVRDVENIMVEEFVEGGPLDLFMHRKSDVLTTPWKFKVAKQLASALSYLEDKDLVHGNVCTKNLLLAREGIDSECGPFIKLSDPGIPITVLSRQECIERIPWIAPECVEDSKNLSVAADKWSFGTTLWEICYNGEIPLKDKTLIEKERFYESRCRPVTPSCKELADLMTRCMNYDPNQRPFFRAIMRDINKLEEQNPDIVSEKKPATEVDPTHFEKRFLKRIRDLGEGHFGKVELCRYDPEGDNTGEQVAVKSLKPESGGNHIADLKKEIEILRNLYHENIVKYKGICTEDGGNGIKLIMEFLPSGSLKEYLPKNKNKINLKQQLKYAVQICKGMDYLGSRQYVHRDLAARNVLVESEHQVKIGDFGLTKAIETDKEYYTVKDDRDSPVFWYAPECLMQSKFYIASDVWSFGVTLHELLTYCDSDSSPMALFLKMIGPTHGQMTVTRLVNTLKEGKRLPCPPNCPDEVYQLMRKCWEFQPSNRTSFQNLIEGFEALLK
Experimental: as §1, §2
Serially or discretely diluted compounds were pre-incubated with each of the four JAK enzymes and the substrate in white 384-well microplates (Corning) at ambient temperature for 1 h. ATP was subsequently added to initiate the kinase reactions in 10 μL total volume, with 1% DMSO. […] The plates were allowed to incubate at ambient temperature for 1 h before being read on the EnVision reader (Perkin Elmer). Emission ratio signals (520 nm/495 nm) were recorded and utilized to calculate the percent inhibition values based on DMSO and background controls.
as §3

[2] = Colon and plasma mouse pharmacokinetics; type: in vivo; settings: male Balb/c mice, 10 mg/kg PO, 0.5, 2 and 6 h
Experimental: Assay 6: Colon and Plasma Mouse Pharmacokinetics
6 male Balb/c mice were administered 10 mg/kg of compound in 1% HPMC+0.1% Tween-80 by PO administration. At 0.5, 2 and 6 hours after dose administration, animals were anesthetized, and terminal blood samples were collected by cardiac puncture, followed by collection of colon contents and colon tissue.
Blood samples were collected into K2EDTA and stored on wet ice until processed to plasma by centrifugation (12,000 rpm at 4° C.). Plasma samples were transferred to cluster tubes and placed on dry ice prior to freezer storage. The colon contents from each animal were collected at each terminal blood collection time point. The colon tissues were flushed with saline and patted dry. The colon and colon content tissues were homogenized using sterile water containing 0.1% formic acid 9:1 (water:tissue, v/w). […] All samples were analyzed using LC/MS/MS against analytical standards.
The composite pharmacokinetic parameters of the compounds were determined by non-compartmental analysis using Phoenix WinNonlin Version 6 (Certara, St. Louis, Mo.) and using mean values from 2 animals/time point. For plasma concentrations below the quantification limit (BQL), the lowest concentration measurable or the BLOQ (below limit of quantification) was used.
A colon to plasma ratio was determined as the ratio of the colon AUC to the plasma AUC.

Caco-2 cell monolayers = experiment: Caco-2 permeation assay; settings: 5 μM, A to B, + Verapamil 25 μM; unit taken from the thresholds in the same block
Experimental: The Caco-2 permeation assay was performed to model the ability of test compounds to pass through the intestine and get into the blood stream after oral administration. The rate at which test compounds in solution permeate a cell monolayer designed to mimic the tight junction of human small intestinal monolayers was determined.
CacoReady 24-well transwell plates were obtained from ADMEcell (Alameda, Calif.). The compounds were evaluated at a concentration of 5 μM from 10 mM DMSO stock solutions in duplicate (n=2). The passive permeability of the compounds tested was evaluated using Caco-2 cell monolayers along with Verapamil (25 μM) to inhibit P-gp transport proteins in the apical to basolateral (A-B) direction. The experiment was conducted in a 37° C., 5% CO2 incubator. Caco-2 culture media consisted of standard filtered DMEM, FCS 10%, L-Glutamine 1% and PenStrep 1%. Basal assay plate was prepared by adding 750 μL of transport buffer to A-B wells. A CacoReady™ plate was prepared by removing the Caco-2 media from the apical wells and replacing with fresh transport media (200 μL repeated for a total of 3 washes). Blank media (200 μL) was then replaced with diluted compound for A-B wells. […] The permeation coefficient (Kp, mean A to B+Verapamil Papparent) in cm/sec was calculated as dQ (flux)/(dt×Area×concentration). […]

Sequence of JAK3 (P52333 whole entry): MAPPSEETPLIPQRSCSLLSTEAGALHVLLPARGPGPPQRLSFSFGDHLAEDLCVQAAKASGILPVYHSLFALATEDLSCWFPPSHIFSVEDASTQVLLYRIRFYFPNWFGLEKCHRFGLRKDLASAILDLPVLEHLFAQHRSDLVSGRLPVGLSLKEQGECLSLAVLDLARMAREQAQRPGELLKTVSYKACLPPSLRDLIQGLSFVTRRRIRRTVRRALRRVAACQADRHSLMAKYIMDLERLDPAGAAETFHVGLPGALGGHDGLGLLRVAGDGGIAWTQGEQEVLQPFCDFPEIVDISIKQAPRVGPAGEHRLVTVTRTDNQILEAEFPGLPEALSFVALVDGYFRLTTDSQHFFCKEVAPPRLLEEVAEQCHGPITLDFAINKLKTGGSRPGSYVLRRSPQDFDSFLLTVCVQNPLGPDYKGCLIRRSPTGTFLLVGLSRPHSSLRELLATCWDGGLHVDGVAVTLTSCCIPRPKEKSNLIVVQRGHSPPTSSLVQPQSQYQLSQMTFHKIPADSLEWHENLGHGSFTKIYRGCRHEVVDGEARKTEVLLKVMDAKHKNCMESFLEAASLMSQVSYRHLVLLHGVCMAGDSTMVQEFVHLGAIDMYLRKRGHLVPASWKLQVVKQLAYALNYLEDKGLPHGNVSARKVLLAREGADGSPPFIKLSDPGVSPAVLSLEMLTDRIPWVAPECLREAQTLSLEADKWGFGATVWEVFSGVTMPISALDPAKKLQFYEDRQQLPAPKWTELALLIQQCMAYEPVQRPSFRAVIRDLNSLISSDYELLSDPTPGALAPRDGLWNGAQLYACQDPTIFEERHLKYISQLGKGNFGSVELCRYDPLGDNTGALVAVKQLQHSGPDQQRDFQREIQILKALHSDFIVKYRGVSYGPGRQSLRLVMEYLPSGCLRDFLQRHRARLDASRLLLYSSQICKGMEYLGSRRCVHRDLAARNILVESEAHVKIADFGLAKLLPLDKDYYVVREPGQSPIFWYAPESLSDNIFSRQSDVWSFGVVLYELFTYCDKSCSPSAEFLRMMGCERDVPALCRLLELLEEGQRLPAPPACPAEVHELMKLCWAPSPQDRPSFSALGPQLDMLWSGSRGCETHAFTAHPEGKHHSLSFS

Structure (SMILES) | JAK3 (pKi)-JAK1 (pKi) (JAK3) | IC50 [1] [nM] | further results
C=CC(=O)N1CC(COc2cc(-c3c(F)cc(O)cc3F)cn3cncc23)C1 [Example 7, 1-(3-(((6-(2,6-difluoro-4-hydroxyphenyl)imidazo[1,5-a]pyridin-8-yl)oxy)methyl)azetidin-1-yl)prop-2-en-1-one] | A (a value of 3 or above) | < 1000 | 
C=CC(=O)N1CC(COc2cc(-c3ccc(O)c(F)c3F)cn3cncc23)C1 [Example 8, 1-(3-(((6-(2,3-difluoro-4-hydroxyphenyl)imidazo[1,5-a]pyridin-8-yl)oxy)methyl)azetidin-1-yl)prop-2-en-1-one] | A (a value of 3 or above) | < 1000 | 
C=CC(=O)N1CC(COc2cc(-c3cc(Cl)c(O)c(OC)c3)cn3cncc23)C1 [Example 9, 1-(3-(((6-(3-chloro-4-hydroxy-5-methoxyphenyl)imidazo[1,5-a]pyridin-8-yl)oxy)methyl)azetidin-1-yl)prop-2-en-1-one] | A (a value of 3 or above) | < 1000 | 
C=CC(=O)N1CC(COc2cc(-c3ccc(O)cc3)cn3cncc23)C1 [Example 11, 1-(3-(((6-(4-hydroxyphenyl)imidazo[1,5-a]pyridin-8-yl)oxy)methyl)azetidin-1-yl)prop-2-en-1-one] | A (a value of 3 or above) | < 1000 | 
C=CC(=O)N1CC(COc2cc(-c3ccc(O)c(Cl)c3)cn3cncc23)C1 [Example 12, 1-(3-(((6-(3-chloro-4-hydroxyphenyl)imidazo[1,5-a]pyridin-8-yl)oxy)methyl)azetidin-1-yl)prop-2-en-1-one] | A (a value of 3 or above) | < 1000 | 
C=CC(=O)N1CC(COc2cc(-c3cc(F)c(O)cc3CC)cn3cncc23)C1 [Example 13, 1-(3-(((6-(2-ethyl-5-fluoro-4-hydroxyphenyl)imidazo[1,5-a]pyridin-8-yl)oxy)methyl)azetidin-1-yl)prop-2-en-1-one] | A (a value of 3 or above) | < 1000 | 
C=CC(=O)N1CC[C@@H](Oc2cc(-c3ccc(O)cc3)cn3cncc23)C[C@H]1C [Example 15, 1-((2R,4R)-4-((6-(4-hydroxyphenyl)imidazo[1,5-a]pyridin-8-yl)oxy)-2-methylpiperidin-1-yl)prop-2-en-1-one] | A (a value of 3 or above) | < 1000 | 
C=CC(=O)N1CCC(N(C)c2cc(-c3ccc(O)cc3)cn3cncc23)CC1 [Example 17] | B (a value of 2.3 to 3) |  | Ki (JAK3; 1 h pre-incubation, ATP at Km 1.6 μM, pKi from pIC50 by Cheng-Prusoff, read-out: JAK 3 (pKi) (converted)): 1 to 10 nM; JAK 1 (pKi) (JAK1): E (a pKi value of 7 or below (Ki of 100 nM or above))
C=CC(=O)N1CC(COc2cc(-c3ccc(O)c(F)c3)cn3cncc23)C1 [Example 20] | A (a value of 3 or above) | < 1000 | 
CCc1cc(O)c(F)cc1-c1cc(OCC2CN(C(=O)/C=C/CN(C)C)C2)c2cncn2c1 [Example 24] | A (a value of 3 or above) | < 1000 | 
C=CC(=O)N1CC(C(C)(C)Oc2cc(-c3ccc(O)cc3)cn3cncc23)C1 [Example 28] | A (a value of 3 or above) | < 1000 | 
C=CC(=O)N1CC(COc2cc(-c3cc(F)c(O)c(Cl)c3)cn3cncc23)C1 [Example 31] | A (a value of 3 or above) | < 1000 | 
C=CC(=O)N1CC(COc2cc(-c3ccc(O)c(C)c3)cn3cncc23)C1 [Example 34] | A (a value of 3 or above) | < 1000 | 
C=CC(=O)N1C[C@H](Nc2ncnc3[nH]ccc23)CC[C@@H]1C [PF-06651600, 2-propen-1-one, 1-[(2S,5R)-2-methyl-5-(7H-pyrrolo[2,3-d]pyrimidin-4-ylamino)-1-piperidinyl]] |  |  | colon to plasma ratio (colon AUC to plasma AUC) [2]: 2.8; Kp value (Caco-2 cell monolayers): 25 ×10⁻⁶ cm/s
